These results are taken from patent publication US7282215B2, “Supports for photosensitizer formulations” (The University of British Columbia, priority 2000, dated 2007).

Series [1] can be described thus: Drug loading of liposomal versus 10% P123 formulations. Format: physicochemical. Particulars: prepared at 2 mg/ml; for Drug loading, P123: Pluronic P123 10% weight/volume; for Drug loading, Liposome: liposomal formulation. On the procedure:
5 mg drug and lipids (40% EPG in DMPC) are combined in CH2Cl2 at a drug to lipid ratio of 1:10 w/w in 250 ml round bottom flask. The maximum concentration of drug in solvent is 2 mg/ml. CH2Cl2 is removed rapidly as described in Example 5. The resulting thin film is hydrated with 2.5 ml lactose solution (9.5% w/v) using hand swirling with glass beads at 40° C. Extrusion using Model 4T (Lipex Biomembranes Inc. B.C., Canada) is carried out with the thermostat set at 40° C. The multilamellar vesicles (MLVs) arising from hydration steps of the liposomal formulation were also examined under the microscope. MLVs are successively extruded 5 times through each of the 400 nm, 200 nm and 100 nm polycarbonate membranes (Nuclepore PC, Costar). Extruded samples were diluted 1:100 in PBS (pH 7.4) and the absorbance determined at 690 nm wavelength.
In this experiment liposomal and block copolymer (micellar) photosensitizer formulations of A- and B-ring compounds of EA6 and B3 were compared. Each of the photosensitizer samples was prepared at a final drug concentration of 2 mg/ml. The block copolymer P123, and the liposomal formulations were prepared as described in the Examples 5 and 6, respectively.

Series [2] can be described thus: Vesicle size of liposomal A-EA6 after microfluidization. It counts as physicochemical. Particulars: for Size: 10 mL batch. On the procedure:
MLVs obtained from each of the conventional and micro-thin films of EA6-A in 3% w/w DMPG/DMPC prepared in Example 24 were introduced into the reaction chamber of a small microfluidizer (23 ml capacity; M110S, Microfluidics). […] The reaction chamber was immersed in ice, with the pressure transducer (Dynisco μPR 690) setting adjusted to 10,000 psi.
Use of the microfluidizer required priming the system with 9.2% lactose. The dead volume retained was considerably higher than stated in the manual, and as a result, only ˜2 mL of undiluted sample was recovered after the first pass in each case. […] Processing was carried out for a total of 6 passes, with 200 μl samples being removed for particle sizing following every pass. Due to limited recovery and dilution of the above samples, 2 larger batches (20 mL) were prepared using the conventional thin film process, and microfluidized with a total of 5 passes. To avoid excessive dilution of the unilammelar vesicles, recovery was limited to 8 mL.
Microfluidisation was repeated with larger volumes of 20 mL. […] The final concentration of A-EA6 in both batches (HH02-5 A and HH02-5 B) was 1.5 mg/mL. These samples were processed with the microfluidiser in a hot water bath at 45° C. instead of ice to prevent suspension temperature falling below the phase transition of DMPC in between passes. Size determination was carried out by laser light scattering on a NICOMP™ 370 Submicron Particle Sizer.

Series [3] in a line: Liposomal drug release to FBS by fluorescence (Ffbs/Ftx). Format: in vitro ADME, bovine. Particulars: 37° C., n=2. The protocol:
This experiment test drug release from micro-thin film preparations and conventional thin film vesicles (76 nm and 98 nm) produced in Example 25. The assay was carried out using an Aminco-Bowman 2 Fluorescence Spectrometer. It has previously been observed in the liposomal photosensitizer formulations that the fluorescence from the photosensitizer drug is quenched due to the high ratio of drug to lipid present. […] Fluorescence signal from liposomal suspensions is therefore low, and increases only when the drug leaves the bilayer for an alternative binding site.
The increase in fluorescence signal reflects liposomal drug transfer in proportion to the rate and extent of transfer to added serum components.
The liposomal suspension is diluted with 5% Dextrose to give an absorbance of 0.1 at the excitation wavelength (430 nm). […] 100 μl of FBS is added to the cuvette, and increase in fluorescence is monitored (following a quick couple of inversions) over 2-3 min if necessary. Once a steady level is achieved (noted as Ffbs), the liposomal system is disrupted using 0.05% v/v Triton X-100 to get a 100% drug level. The maximum fluorescence level is noted as Ftx. The ratio of Ffbs/Ftx gives an estimation of liposomal drug release, and is highly reproducible (SD ˜0-2% for n=5). Reported release results are based on 2-5 repeat assays depending on instrumental stability.

Series [4] can be described thus: Vesicle size of liposomal A-EA6 after microfluidization. Format: physicochemical.
The subject of series [5] is L1210 cells. The series can be described thus: In vitro phototoxicity (MTT assay after light exposure). Format: cell-based. On the procedure:
Exposure to drugs was carried out in the presence and absence of fetal calf serum (FCS) as a model to study transfer of drug to cells in vivo. […] A suspension of L1210 cells was prepared and exposed to various drug formulations (drug concentrations ranging from 0-50 ng/ml) either in the absence or presence of 10% fetal calf serum (FCS). One hour later, the drug was removed by pelleting the cells by centrifugation. The pellet was briefly washed with 1 ml DME and resuspended in 5% FCS/DME. 100 μl of the cell suspension was aliquoted into 6 wells of a 96 well plate, and the plate exposed to light at 10 J/cm^2. Viability was determined 24 h post exposure using the MTT assay (Mosmann, J. Immunol. Meth. 65:55-63, 1983).
A general note: Tetrazolium dyes change colour on reduction, which living cells bring about.

A short description of series [6]: pH studies of copolymer formulations. Format: physicochemical. Particulars: acidification. The source says:
Counteracting the oily nature of P123 could be achieved by incorporation of copolymer that is in solid form at room temperature. The use of 1% w/w F127 with 9% w/v P123 instead of 10% P123 (w/v) produced a thin film, which was more readily hydrated. […] This necessitates hydration of the solid drug-polymer with a very mild buffer to counteract acidification which occurs upon use of sterile packed distilled water as commonly practiced in clinical settings. Behavior of poloxamers is unaffected by pH, and the use of buffers would be entirely dependent on ionizable groups present on the drug substance.

Series [7] has as its system M1 rhabdomyosarcoma tumor. The series can be described thus: PDT tumor recurrence in tumor mouse model. More on the design: key to Percent (%) Mice Tumor Free: Mice suffered from phototoxic (PT) reaction at the site of light exposure and were subsequently euthanized. Format: in vivo, DBA/2 mouse. The protocol: Photosensitizer formulations were prepared in 10% w/v Pluronics as described in Example 4. BPD-MA was formulated in F127. B-ring compounds B-EA6 and B-B3, were prepared in P123 due to insufficient drug loading in F127. Liposomal BPD-MA formulation was Verteporfin™ and B-ring compounds were formulated in the same lipid composition. Where DMSO/plasma preparations were made, the DMSO dissolved drug was added directly to mouse plasma and the drug association with different plasma components was observed.
In these experiments the tumor model used was the DBA/2 mouse (males) inoculated intradermally with M1 rhabdomyosarcoma tumor cells (M1, ATCC. When tumors reached a diameter of 4-6 mm, the mice (n=10, unless other wise stated) were treated with photodynamic therapy (PDT). PDT involved intravenous injection of the formulated drug in 0.2 mL volume of PBS. This was followed by exposure of the tumor region to laser light (Argon pumped dye laser (5W), 690 nm, 50J/cm2) 15 min later. Animals were then monitored for tumor recurrence over a 20 day period post treatment.

The conditions of series [8]: JM4 at 2 mg/ml, after overnight storage and centrifugation. The protocol: 1 to 2 mg drug and 25-100 mg Pluronic are combined in methylene dichloride (CH2Cl2) to yield drug concentration of 1 mg/ml. CH2Cl2 is removed rapidly by rotary evaporation (Rotavapor R-124, Bucchi B172 Vacobox pump) at 50°, at maximum speed of rotation. Once a steady minimum pressure is achieved, the flask is held under vacuum for a further 20-30 min. […] Samples are kept overnight at room temperature to allow unincorporated drug to fall out, and then spun at 14,000 rpm {Eppendorff, Microfuge} for 30 min. Supernatant is decanted off into a fresh Eppendorff vial, and diluted 1:100 in the iso-osmolar medium used for thin film hydration (PBS or lactose) for determination of absorbance 690 nm (A690). Formulations are stored at 4° C. or frozen at −20° C. for long term storage.
In this experiment the following three selected dihydroxychlorins were examined for formulation with 10% P123. Each of the drugs was prepared to a final concentration level of 1 mg/ml and the formulation protocol used is described in Example 5. These compounds were prepared as described in U.S. patent application Ser. Nos. 09/551,159 and 09/551,160, both filed Apr. 14, 2000, and No. 60/129,324, filed Apr. 14, 1999, all three of which are hereby incorporated by reference as if fully set forth. One of these compounds, JM4, was further tested for drug incorporation using 2.5 to 10% P123.

SMILES strings stand for the structures. Like-named read-outs stand apart in the source and are kept apart here. Marks after values point to notes of the source that are not given here.

As for `C=Cc1c(C)c2cc3nc(cc4[nH]c(cc5nc(cc1[nH]2)C(C)=C5CCC(=O)OC)c(CCC(=O)OC)c4C)C1(C)C3=CC=C(C(=O)O)C1C(=O)OC` (stereo not drawn) [A-B3], in series [1], the “Drug loading, P123” value amounted to 1.33 mg/mL and the “Drug loading, Liposome” value was determined as 1.84 mg/mL.
`C=Cc1c(C)c2cc3nc(cc4[nH]c(cc5nc(cc1[nH]2)C(C)=C5CCC(=O)OCCO)c(CCC(=O)OCCO)c4C)C1(C)C3=CC=C(C(=O)OC)C1C(=O)OC` (stereo not drawn) [A-EA6, Diethyleneglycol Ester A-ring]: the Size in series [2] (conventional thin film, pass 3) is on record as 81 + 21^2 nm; in series [2] (conventional thin film, pass 4), 63 nm; in series [2] (conventional thin film, pass 5), 66 nm; in series [2] (conventional thin film, pass 6) it was 63 nm; in series [2] (micro-thin film, pass 1) it was 141 + 54^2 nm; in series [2] (micro-thin film, pass 2), 62 nm. In addition, the Size in series [2] (micro-thin film, pass 3) is 67 nm; in series [2] (micro-thin film, pass 4), 59 nm; in series [2] (micro-thin film, pass 5), 60 nm; in series [2] (micro-thin film, pass 6) it was 57 nm. The Mean vesicle size turned out to be 98 nm in series [2] (conventional thin film, 20 mL, after the first pass) and 76 nm in series [4] (micro-thin film, 20 mL, after the first pass). Also, the Vesicle size is recorded as ~60 nm in series [2] (microfluidized, 10 mL volume) and 100-110 nm in series [4] (final extrusion through 100 nm filters). In addition, the “Drug release from liposomal formulation to 5% FBS” value in series [3] (micro-thin film batch) is reported as 72%; in series [3] (thin film batch), 67%. In addition, the “Drug loading, P123” value in series [1] is 1.82 mg/mL. For the same molecule, the “Drug loading, Liposome” value in series [1] stood at 0.98 mg/mL.
Take `C=Cc1c(C)c2cc3nc(cc4[nH]c(cc5nc(cc1[nH]2)C1(C)C5=CC=C(C(=O)OC)C1C(=O)OC)c(C)c4CCC(=O)OCCO)C(CCC(=O)OCCO)=C3C` (stereo not drawn) [B-EA6]: the LD50 in series [5] (Carrier Copolymer (P123), +FCS (10%)) was 12.9* ng/ml; in series [5] (Carrier Copolymer (P123), −FCS), 2.06* ng/ml; in series [5] (Carrier DMSO, +FCS (10%)), 20.0 ng/mL; in series [5] (Carrier DMSO, −FCS), 4.7 ng/mL; in series [5] (Carrier Liposomal, +FCS (10%)) it was 19.7 ng/mL; in series [5] (Carrier Liposomal, −FCS, 1 h drug, light 10 J/cm^2, MTT 24 h), 4.7 ng/mL. Also, the “pH dependency of formulation stability” value in series [6] is given as “does not display any pH-dependency”. Further, in series [1], the “Drug loading, P123” value came to 0.37 mg/mL. Further, the “Drug loading, Liposome” value in series [1] amounted to 0.06 mg/mL. Besides, the “Reaction at the irradiated site” value in series [7] (1 mg/kg, formulated in P123, tumor bearing mice) is on record as “strong phototoxic reaction (edema)”. In addition, the “Percent (%) Mice Tumor Free” value came out at 90% in series [7] (Liposomal, 1.0 mg/kg i.v., 690 nm 50J/cm2 15 min later, Day 7); 70% in series [7] (Liposomal, 1.0 mg/kg, Day 14); 60% in series [7] (Liposomal, 1.0 mg/kg, Day 20); 80% in series [7] (Pluronic P123, 0.5 mg/kg, Day 7); 60% in series [7] (Pluronic P123, 0.5 mg/kg, Day 14); 40% in series [7] (Pluronic P123, 0.5 mg/kg, Day 20). For the same molecule, the “Percent (%) Mice Tumor Free” value in series [7] (Pluronic P123, 1.0 mg/kg, Day 7) is listed as “PT^1”; in series [7] (Pluronic P123, 1.0 mg/kg, Day 14) it was “PT^1”; in series [7] (Pluronic P123, 1.0 mg/kg, Day 20) it was “PT^1”.
On to `Cc1ccc(-c2c3nc(c(-c4ccc(C)cc4)c4ccc([nH]4)c(-c4ccc(C)cc4)c4nc(c(-c5ccc(C)cc5)c5ccc2[nH]5)C(O)C4O)C=C3)cc1` (stereo not drawn) [JM4, 5, 10, 15, 20-tetra (para-methyl phenyl)-2,-3-dihydroxychlorin], for which the figures for the Incorporation in series [8] (P123 2.5% w/v), in series [8] (P123 5% w/v) and in series [8] (P123 10% w/v) were 0.92 mg/mL, 1.43 mg/mL and 2.00 mg/mL, respectively.
